Data set [1] concerns the target T1, NHE9* (Equus caballus, UniProt F7B113, K85Q/K105Q/K107Q).
T1 construct: gene SLC9A9; residues 8-575 (8-574 elsewhere) of 644, C-terminal tail truncated; GFP-TwinStrep-His8 fusion kept for thermal shift; S. cerevisiae FGY217; purified homodimer
T1 sequence (F7B113 8-575 K85Q/K105Q/K107Q): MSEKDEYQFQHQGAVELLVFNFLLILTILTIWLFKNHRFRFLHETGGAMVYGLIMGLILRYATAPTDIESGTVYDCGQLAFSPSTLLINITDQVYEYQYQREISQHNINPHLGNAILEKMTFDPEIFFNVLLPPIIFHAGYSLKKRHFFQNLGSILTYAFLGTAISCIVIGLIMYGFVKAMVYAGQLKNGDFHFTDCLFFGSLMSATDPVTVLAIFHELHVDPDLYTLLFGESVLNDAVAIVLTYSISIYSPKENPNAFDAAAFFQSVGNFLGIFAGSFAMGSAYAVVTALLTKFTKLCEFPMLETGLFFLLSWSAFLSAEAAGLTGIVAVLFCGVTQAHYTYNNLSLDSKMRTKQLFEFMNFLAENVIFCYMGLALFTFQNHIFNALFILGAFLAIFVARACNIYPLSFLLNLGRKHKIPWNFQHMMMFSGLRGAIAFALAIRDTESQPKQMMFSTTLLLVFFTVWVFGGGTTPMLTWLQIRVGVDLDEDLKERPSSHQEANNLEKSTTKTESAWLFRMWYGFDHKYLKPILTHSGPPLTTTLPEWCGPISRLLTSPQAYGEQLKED
As to the kind of experiment: GFP-based thermal shift (FSEC-TS). The data set is classed as binding. Particulars: 1% DDM, 1% octyl glucoside, 10 min heating; lipid 1 mg/ml in the screen; TM2-TM3 loop mutant.

The target in data set [2] is T2, NHE9 ΔCTD (Equus caballus, UniProt F7B113).
T2 construct: gene SLC9A9; residues 8-481 of 644, whole C-terminal regulatory domain removed; GFP-TwinStrep-His8 fusion for thermal shift; S. cerevisiae FGY217; purified homodimer
T2 sequence (F7B113 8-481): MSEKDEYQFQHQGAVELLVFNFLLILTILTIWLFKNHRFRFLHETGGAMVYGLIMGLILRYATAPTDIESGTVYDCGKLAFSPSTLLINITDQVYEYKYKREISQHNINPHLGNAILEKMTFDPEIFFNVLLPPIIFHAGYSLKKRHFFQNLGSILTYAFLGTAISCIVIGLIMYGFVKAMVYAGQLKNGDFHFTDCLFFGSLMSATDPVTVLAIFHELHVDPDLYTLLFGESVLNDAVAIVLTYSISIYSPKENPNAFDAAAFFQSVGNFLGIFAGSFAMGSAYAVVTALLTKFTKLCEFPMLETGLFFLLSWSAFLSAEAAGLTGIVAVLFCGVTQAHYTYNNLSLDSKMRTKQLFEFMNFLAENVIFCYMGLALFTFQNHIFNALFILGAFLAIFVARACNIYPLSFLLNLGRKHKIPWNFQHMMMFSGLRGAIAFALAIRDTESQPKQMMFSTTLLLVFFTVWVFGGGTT
As to the kind of experiment: GFP-based thermal shift (FSEC-TS). Particulars: 1% DDM, 1% octyl glucoside, 10 min heating; lipid 1 mg/ml in the screen. The data set is classed as binding.

In data set [3] the target is T3, NHE9* (Equus caballus, UniProt F7B113).
T3 construct: gene SLC9A9; residues 8-575 (8-574 elsewhere) of 644, C-terminal tail truncated; GFP-TwinStrep-His8 fusion kept for thermal shift; S. cerevisiae FGY217; purified homodimer
T3 sequence (F7B113 8-575): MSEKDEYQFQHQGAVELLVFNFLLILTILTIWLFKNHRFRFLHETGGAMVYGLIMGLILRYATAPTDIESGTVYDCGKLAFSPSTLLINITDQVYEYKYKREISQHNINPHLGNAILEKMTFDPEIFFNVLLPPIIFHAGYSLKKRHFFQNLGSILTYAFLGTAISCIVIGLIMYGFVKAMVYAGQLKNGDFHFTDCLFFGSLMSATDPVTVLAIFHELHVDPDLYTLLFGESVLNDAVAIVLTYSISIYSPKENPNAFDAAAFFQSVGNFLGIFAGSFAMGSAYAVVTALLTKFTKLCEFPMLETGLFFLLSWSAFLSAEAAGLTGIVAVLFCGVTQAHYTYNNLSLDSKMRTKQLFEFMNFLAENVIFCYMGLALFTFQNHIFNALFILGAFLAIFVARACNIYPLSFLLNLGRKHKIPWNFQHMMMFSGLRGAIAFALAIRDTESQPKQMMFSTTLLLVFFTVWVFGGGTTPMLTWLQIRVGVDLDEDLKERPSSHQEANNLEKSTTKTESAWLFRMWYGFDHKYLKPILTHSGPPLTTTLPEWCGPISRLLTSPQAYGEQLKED
Kind of data set: GFP-based thermal shift (FSEC-TS). The following applies: 1% DDM, 1% octyl glucoside, 10 min heating; lipid 1 mg/ml in the screen. It is filed as binding. From the text:
GFP-based thermal shift (FSEC-TS) on NHE9* | In the presence of either PIP2 or PIP3, the average melting temperature (ΔT m)

Data set [4] concerns the target horse NHE9* (residues 8-575 out of 644), TEV-cleaved (Equus caballus (horse)). As to the kind of experiment: native MS; 100 mM ammonium acetate pH 7.0, 0.02% (w/v) DDM; NHE9* purified with or without added brain lipids.
Data set [5] deals with the molecule itself. As to the kind of experiment: cryo-EM structure; purified protein in LMNG/CHS, 20 mM Tris-HCl pH 7.5, 150 mM NaCl; brain lipids added during purification; no symmetry imposed (C1).

As usually defined, the ΔTm is the shift of the melting midpoint relative to a reference. Regarding `CCCCCCCC(=O)OC[C@H](COP(=O)(O)O[C@@H]1[C@H](O)[C@H](O)[C@@H](OP(=O)(O)O)[C@H](OP(=O)(O)O)[C@H]1O)OC(=O)CCCCCCC` [PIP2, phosphatidylinositol bis‐4,5‐phosphate,1,2‐dioctanoyl], the ΔTm result is “a triple lysine‐to‐glutamine loop mutant markedly reduced PIP2‐mediated stabilization” in data set [1]; “the ΔCTD construct was also analysed, yet additional stabilization upon PIP2 addition was still observed” in data set [2]; 9 °C in data set [3].

Regarding `CCCCCCCCCCCCCCCC(=O)OC[C@H](COP(=O)(O)O[C@H]1[C@H](O)[C@@H](OP(=O)(O)O)[C@H](OP(=O)(O)O)[C@@H](OP(=O)(O)O)[C@H]1O)OC(=O)CCCCCCCCCCCCCCC` [PIP3, phosphatidylinositol tris‐3,4,5‐phosphate,1,2‐dipalmitoyl], the ΔTm in data set [3] came to 9 °C.

By stoichiometry N is commonly meant a count of units in the complex or per binding partner. Take “horse NHE9* (residues 8-575 out of 644), TEV-cleaved (domain or fragment)”: the stoichiometry N in data set [4] amounted to 2.

B1: horse NHE9 ΔCTD (residues 8-481 out of 644) (domain or fragment, Equus caballus (horse), UniProt F7B113 8-481, looked up)
chain: MSEKDEYQFQHQGAVELLVFNFLLILTILTIWLFKNHRFRFLHETGGAMVYGLIMGLILRYATAPTDIESGTVYDCGKLAFSPSTLLINITDQVYEYKYKREISQHNINPHLGNAILEKMTFDPEIFFNVLLPPIIFHAGYSLKKRHFFQNLGSILTYAFLGTAISCIVIGLIMYGFVKAMVYAGQLKNGDFHFTDCLFFGSLMSATDPVTVLAIFHELHVDPDLYTLLFGESVLNDAVAIVLTYSISIYSPKENPNAFDAAAFFQSVGNFLGIFAGSFAMGSAYAVVTALLTKFTKLCEFPMLETGLFFLLSWSAFLSAEAAGLTGIVAVLFCGVTQAHYTYNNLSLDSKMRTKQLFEFMNFLAENVIFCYMGLALFTFQNHIFNALFILGAFLAIFVARACNIYPLSFLLNLGRKHKIPWNFQHMMMFSGLRGAIAFALAIRDTESQPKQMMFSTTLLLVFFTVWVFGGGTT
notes: horse (Equus caballus) NHE9 (SLC9A9), residues 8-481 out of 644, lacking the entire C-terminal regulatory domain; C-terminal residues left after TEV cleavage are probably as in NHE9* (surmise); also called ΔCTD construct; source: S. cerevisiae FGY217, purified (Strep-Tactin XT, TEV digestion, SEC); not shown: GFP, C-terminal, cleaved; TwinStrep, C-terminal, cleaved; His8, C-terminal, cleaved
In the case of B1, the binding result in data set [5] is recorded as “binds”.

The values above are taken from paper PMC7737618, “Structure and elevator mechanism of the mammalian sodium/proton exchanger NHE9” (The EMBO Journal, 2020).
